Results from patent US20040097577A1 (priority 2001, published 2004).

Assays:
[1] = tested on: patients in the age ranging from 6 to 14 years; test: pilot study, effect of melatonin on sleep latency (sleep logs, CGI), melatonin versus placebo; format: in vivo, human
Protocol: In a pilot study, nine patients in the age ranging from 6 to 14 years were run through a protocol to determine feasibility. A sample of four sleep logs, illustrating response at each of the protocol was determined. […] Patients tolerated the protocol, and parents were able to reliably complete the sleep logs. Some parents had to be trained to do so over several visits. Parents whose children fell asleep extremely late, could not tolerate staying up to find out when they actually fell asleep, and had to be excluded.

[2] = tested on: children; settings: cited from earlier work
[3] = tested on: children, most of whom were neurologically multiply disabled; settings: 2 to 10 mg of oral melatonin at bedtime; cited from earlier work

## COc1ccc2[nH]cc(CCNC(C)=O)c2c1 [melatonin, N-acetyl-5-methoxytryptamine]
[1]; melatonin versus placebo
  CGI data: not significant
[1]; nine patients, sleep logs, with sleep hygiene
  difference in response between the melatonin and placebo: significant difference in response (p=0.03)
[2]; children who received melatonin for several years
  adverse effects on long-term use: without adverse effects
[2]; children, 2.5 to 7.5 mg PO once daily before expected bedtime
  average onset of sleep after melatonin administration: ≤ 1 h
[3]
  adverse side-effects: no adverse side-effects
  health, behavioural and social benefits: significant
